Measured values from ChEMBL document CHEMBL4842352, “Novel diarylamides and diarylureas with N-substitution dependent activity against medulloblastoma” (Eur J Med Chem, 2021).
Calls of active or inactive are those of the source. No cut-off for these calls is given here.

Assays:
[1] = tested on: Daoy; test: Cytotoxicity against human DAOY cells assessed as reduction in cell viability incubated for 72 hrs by MTT assay; type: functional, cell-based
[2] = tested on: ONS-76; test: Cytotoxicity against human ONS-76 cells assessed as reduction in cell viability incubated for 72 hrs by MTT assay; type: functional, cell-based; conditions: ONS-76, 72 h
[3] = tested on: Daoy; test: Potency index, ratio of 1-(naphthalen-1-yl)-3-(3,4,5-trimethoxyphenyl)urea IC50 to test compound IC50 for cytotoxicity against human DAOY cells assessed as reduction in cell viability incubated for 72 hrs by MTT assay; type: functional
[4] = tested on: ONS-76; test: Potency index, ratio of 1-(naphthalen-1-yl)-3-(3,4,5-trimethoxyphenyl)urea IC50 to test compound IC50 for cytotoxicity against human ONS-76 cells assessed as reduction in cell viability incubated for 72 hrs by MTT assay; type: functional
[5] = target: Insulin-like growth factor 1 receptor (Homo sapiens) (UniProt P08069); test: Inhibition of IGF-1R (unknown origin) at 100 uM
[6] = target: Vascular endothelial growth factor receptor 2 (Homo sapiens) (UniProt P35968); test: Inhibition of VEGFR2 (unknown origin) at 100 uM
[7] = target: T1, Aurora kinase A (Homo sapiens) (UniProt O14965); test: Inhibition of Aurora A (unknown origin) at 100 uM relative to control
T1 sequence (whole entry): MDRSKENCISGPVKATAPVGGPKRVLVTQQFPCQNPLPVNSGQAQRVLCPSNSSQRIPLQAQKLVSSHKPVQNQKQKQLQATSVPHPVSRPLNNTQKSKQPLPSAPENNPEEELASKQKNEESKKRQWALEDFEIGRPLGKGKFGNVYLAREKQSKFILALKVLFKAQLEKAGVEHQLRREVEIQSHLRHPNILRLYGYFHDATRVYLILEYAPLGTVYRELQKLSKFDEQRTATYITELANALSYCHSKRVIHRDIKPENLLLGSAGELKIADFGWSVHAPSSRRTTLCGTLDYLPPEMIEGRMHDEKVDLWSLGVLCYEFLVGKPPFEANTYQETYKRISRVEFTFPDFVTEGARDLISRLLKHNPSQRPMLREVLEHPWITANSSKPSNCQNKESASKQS

[8] = target: Cyclin-dependent kinase 2 (Homo sapiens) (UniProt P24941); test: Inhibition of CDK2 (unknown origin) at 100 uM

Chain of Vascular endothelial growth factor receptor 2 (Homo sapiens) (P35968 whole entry): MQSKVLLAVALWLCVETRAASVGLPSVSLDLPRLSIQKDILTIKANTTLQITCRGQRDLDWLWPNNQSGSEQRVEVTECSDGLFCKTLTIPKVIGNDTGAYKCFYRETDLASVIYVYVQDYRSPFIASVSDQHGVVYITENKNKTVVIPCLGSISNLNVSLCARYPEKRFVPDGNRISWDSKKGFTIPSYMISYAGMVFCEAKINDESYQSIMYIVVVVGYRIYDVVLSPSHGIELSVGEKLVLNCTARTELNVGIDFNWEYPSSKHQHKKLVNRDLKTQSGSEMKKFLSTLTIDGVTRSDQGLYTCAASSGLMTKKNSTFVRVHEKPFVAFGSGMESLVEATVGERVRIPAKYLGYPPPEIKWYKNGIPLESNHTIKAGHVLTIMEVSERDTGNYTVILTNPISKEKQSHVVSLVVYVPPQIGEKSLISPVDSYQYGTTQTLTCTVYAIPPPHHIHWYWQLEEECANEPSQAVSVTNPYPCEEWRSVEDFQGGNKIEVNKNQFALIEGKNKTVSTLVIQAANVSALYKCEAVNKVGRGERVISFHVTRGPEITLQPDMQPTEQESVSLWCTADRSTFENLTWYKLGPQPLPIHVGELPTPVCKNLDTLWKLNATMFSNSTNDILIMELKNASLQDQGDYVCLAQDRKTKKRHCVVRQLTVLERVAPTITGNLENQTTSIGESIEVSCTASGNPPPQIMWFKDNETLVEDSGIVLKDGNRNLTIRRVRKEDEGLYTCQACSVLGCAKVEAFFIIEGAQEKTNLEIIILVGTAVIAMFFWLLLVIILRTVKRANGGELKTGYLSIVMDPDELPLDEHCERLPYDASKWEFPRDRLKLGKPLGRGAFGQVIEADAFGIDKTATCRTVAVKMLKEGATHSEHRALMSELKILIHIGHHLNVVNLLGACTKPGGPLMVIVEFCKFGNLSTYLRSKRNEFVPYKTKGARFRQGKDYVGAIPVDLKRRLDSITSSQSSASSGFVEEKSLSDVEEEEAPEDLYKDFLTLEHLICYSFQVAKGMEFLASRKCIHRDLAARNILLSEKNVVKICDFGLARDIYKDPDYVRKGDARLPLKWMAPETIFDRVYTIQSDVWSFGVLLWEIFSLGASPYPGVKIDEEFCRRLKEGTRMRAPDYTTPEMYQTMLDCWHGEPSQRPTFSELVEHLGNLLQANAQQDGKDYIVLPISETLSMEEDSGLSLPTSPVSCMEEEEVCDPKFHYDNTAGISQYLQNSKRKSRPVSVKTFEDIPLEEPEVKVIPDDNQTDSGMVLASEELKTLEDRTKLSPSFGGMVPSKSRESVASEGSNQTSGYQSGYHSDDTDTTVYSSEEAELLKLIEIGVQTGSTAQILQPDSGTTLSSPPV
Chain of Insulin-like growth factor 1 receptor (Homo sapiens) (P08069 31-736 limits assumed): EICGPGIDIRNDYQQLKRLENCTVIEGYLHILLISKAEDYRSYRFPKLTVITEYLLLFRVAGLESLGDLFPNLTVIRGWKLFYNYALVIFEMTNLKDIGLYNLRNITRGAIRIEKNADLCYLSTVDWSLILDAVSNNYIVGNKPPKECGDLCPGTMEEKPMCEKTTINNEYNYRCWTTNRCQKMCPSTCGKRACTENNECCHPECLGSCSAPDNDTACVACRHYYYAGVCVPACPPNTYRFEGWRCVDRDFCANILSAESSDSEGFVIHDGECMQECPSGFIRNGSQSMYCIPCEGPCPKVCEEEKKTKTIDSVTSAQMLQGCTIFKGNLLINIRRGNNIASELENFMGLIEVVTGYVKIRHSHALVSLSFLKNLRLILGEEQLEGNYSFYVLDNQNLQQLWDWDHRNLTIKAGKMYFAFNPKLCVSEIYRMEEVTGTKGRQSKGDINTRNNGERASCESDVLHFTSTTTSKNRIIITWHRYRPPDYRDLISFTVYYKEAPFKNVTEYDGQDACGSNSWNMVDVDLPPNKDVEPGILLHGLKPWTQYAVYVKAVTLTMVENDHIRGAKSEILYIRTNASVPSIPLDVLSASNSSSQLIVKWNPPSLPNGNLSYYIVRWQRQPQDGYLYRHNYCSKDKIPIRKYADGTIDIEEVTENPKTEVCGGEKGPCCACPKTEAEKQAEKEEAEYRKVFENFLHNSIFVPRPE
Chain of Insulin-like growth factor 1 receptor (Homo sapiens) (P08069 741-1367 limits assumed): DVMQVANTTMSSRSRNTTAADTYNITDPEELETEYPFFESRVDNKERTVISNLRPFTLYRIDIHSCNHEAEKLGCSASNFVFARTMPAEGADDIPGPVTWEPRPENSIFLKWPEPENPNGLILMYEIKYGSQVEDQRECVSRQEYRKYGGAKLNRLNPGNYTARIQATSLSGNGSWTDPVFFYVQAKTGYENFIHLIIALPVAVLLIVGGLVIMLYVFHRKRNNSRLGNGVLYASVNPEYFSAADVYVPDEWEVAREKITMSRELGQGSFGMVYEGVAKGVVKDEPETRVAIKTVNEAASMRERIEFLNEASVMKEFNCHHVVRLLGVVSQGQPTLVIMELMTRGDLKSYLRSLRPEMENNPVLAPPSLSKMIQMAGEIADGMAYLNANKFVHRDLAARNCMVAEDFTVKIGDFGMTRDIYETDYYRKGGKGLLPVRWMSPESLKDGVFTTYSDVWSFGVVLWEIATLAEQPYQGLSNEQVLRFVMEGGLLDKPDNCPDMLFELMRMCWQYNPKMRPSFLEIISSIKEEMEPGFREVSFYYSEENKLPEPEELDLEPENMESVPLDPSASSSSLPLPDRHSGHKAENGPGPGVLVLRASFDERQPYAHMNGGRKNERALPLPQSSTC

Structure (SMILES) | IC50 [1] | IC50 [2] | other results
COc1cc(NC(=O)c2cccc([N+](=O)[O-])c2)cc(OC)c1OC | ≥ 125 µM | ≥ 125 µM | 
COc1cc(N(C)C(=O)c2cccc([N+](=O)[O-])c2)cc(OC)c1OC | ≥ 125 µM | ≥ 125 µM | 
COc1cc(N(C)C(=O)c2cccc(F)c2)cc(OC)c1OC | ≥ 125 µM | ≥ 125 µM | 
COc1cc(NC(=O)c2ccc([N+](=O)[O-])cc2)cc(OC)c1OC | 52.9 µM | ≥ 125 µM | 
COc1cc(NC(=O)Nc2cccc3ncccc23)cc(OC)c1OC | 4 µM | ≥ 125 µM | Ratio IC50 [3]: 1.5
COc1cc(N(C)C(=O)N(C)c2cccc3ccccc23)cc(OC)c1OC | ≥ 125 µM | ≥ 125 µM | 
COc1ccc(C(=O)N(C)c2cc(OC)c(OC)c(OC)c2)cc1 | ≥ 125 µM | ≥ 125 µM | 
COc1ccc(C(=O)Nc2cc(OC)c(OC)c(OC)c2)cc1 | ≥ 125 µM | ≥ 125 µM | 
COc1cc(N(C)C(=O)N(C)c2cccc([N+](=O)[O-])c2)cc(OC)c1OC | ≥ 125 µM | ≥ 125 µM | 
COc1cc(NC(=O)Nc2cccc3cc4ccccc4cc23)cc(OC)c1OC | 1.25 µM | 10 µM | Ratio IC50 [3]: 4.7; Ratio IC50 [4]: 0.25
COc1cc(NC(=O)Nc2ccc([N+](=O)[O-])cc2)cc(OC)c1OC | 70.8 µM | 35 µM | 
COc1cc(NC(=O)Nc2ccc(F)cc2)cc(OC)c1OC | 104 µM | 63.2 µM | 
COc1cc(N(C)C(=O)N(C)c2ccc(F)cc2)cc(OC)c1OC | ≥ 125 µM | ≥ 125 µM | 
COc1cc(NC(=O)Nc2cccc3ccccc23)cc(OC)c1OC | 5.84 µM | 2.45 µM | 
COc1cc(N(C)C(=O)c2ccccc2)cc(OC)c1OC | ≥ 125 µM | ≥ 125 µM | 
COc1cc(N(C)C(=O)c2cccc3ccccc23)cc(OC)c1OC | ≥ 125 µM | 65.7 µM | 
COc1cc(NC(=O)Nc2cccc(F)c2)cc(OC)c1OC | 111 µM | 65.5 µM | 

Structure (SMILES) | IC50 [1] | IC50 [2] | other results
COc1ccc(N(C)C(=O)N(C)c2cc(OC)c(OC)c(OC)c2)cc1 | ≥ 125 µM | ≥ 125 µM | 
COc1cc(NC(=O)Nc2cccc3cc(O)ccc23)cc(OC)c1OC | ≥ 125 µM | ≥ 125 µM | 
COc1ccc(NC(=O)Nc2cc(OC)c(OC)c(OC)c2)cc1 | 14.8 µM | 12.9 µM | 
COc1cc(NC(=O)Nc2ccc3c(ccn3C)c2)cc(OC)c1OC | 0.16 µM | ≥ 125 µM | Ratio IC50 [3]: 36.5
COc1cc(NC(=O)c2ccccc2)cc(OC)c1OC | ≥ 125 µM | ≥ 125 µM | 
COc1cc(N(C)C(=O)N(C)c2ccc([N+](=O)[O-])cc2)cc(OC)c1OC | ≥ 125 µM | ≥ 125 µM | 
COc1cc(NC(=O)Nc2cccc3cc[nH]c23)cc(OC)c1OC | ≥ 125 µM | ≥ 125 µM | 
COc1cc(NC(=O)Nc2cccc([N+](=O)[O-])c2)cc(OC)c1OC | 82.5 µM | 79.6 µM | 
COc1cc(N(C)C(=O)c2ccc([N+](=O)[O-])cc2)cc(OC)c1OC | ≥ 125 µM | ≥ 125 µM | 
COc1cc(NC(=O)Nc2c3ccccc3cc3ccccc23)cc(OC)c1OC | ≥ 125 µM | 10 µM | Ratio IC50 [4]: 0.25
COc1cc(N(C)C(=O)N(C)c2cccc(F)c2)cc(OC)c1OC | ≥ 125 µM | ≥ 125 µM | 
COc1cc(NC(=O)c2cccc(F)c2)cc(OC)c1OC | ≥ 125 µM | ≥ 125 µM | 
COc1cc(NC(=O)Nc2cccc3c2CCC3)cc(OC)c1OC | 0.47 µM | ≥ 125 µM | Ratio IC50 [3]: 12.4
COc1cc(NC(=O)c2ccc(F)cc2)cc(OC)c1OC | ≥ 125 µM | ≥ 125 µM | 
COc1cc(NC(=O)Nc2ccc(O)c3ccccc23)cc(OC)c1OC | 0.1 µM | 2.5 µM | inhibition [5]: inactive; inhibition [6]: inactive; Ratio IC50 [3]: 58.4; inhibition [7]: 30%; Ratio IC50 [4]: 0.98; inhibition [8]: inactive
COc1cc(N(C)C(=O)c2ccc(F)cc2)cc(OC)c1OC | ≥ 125 µM | ≥ 125 µM | 
COc1cc(NC(=O)c2cccc3ccccc23)cc(OC)c1OC | 48.7 µM | 26.8 µM | 
